# Source: US9096615B2, “Bridged bicyclic amino thiazine dioxide compounds as inhibitors of beta-secretase and methods of use thereof” (AMGEN INC., priority 2013, dated 2015)
# Read-outs that look alike come from different tables or passages of the source.
# Tests used:
# human Bace2 protein = target: T1, human Bace2 protein (Homo sapiens, UniProt Q9Y5Z0); test: In vitro enzymatic BACE2 FRET assay; format: biochemical; details: average IC50; read-out: BACE2 Enzyme assay IC50
# T1 construct: V5 (C); 6-His (C)
# T1 sequence (Q9Y5Z0 63-518): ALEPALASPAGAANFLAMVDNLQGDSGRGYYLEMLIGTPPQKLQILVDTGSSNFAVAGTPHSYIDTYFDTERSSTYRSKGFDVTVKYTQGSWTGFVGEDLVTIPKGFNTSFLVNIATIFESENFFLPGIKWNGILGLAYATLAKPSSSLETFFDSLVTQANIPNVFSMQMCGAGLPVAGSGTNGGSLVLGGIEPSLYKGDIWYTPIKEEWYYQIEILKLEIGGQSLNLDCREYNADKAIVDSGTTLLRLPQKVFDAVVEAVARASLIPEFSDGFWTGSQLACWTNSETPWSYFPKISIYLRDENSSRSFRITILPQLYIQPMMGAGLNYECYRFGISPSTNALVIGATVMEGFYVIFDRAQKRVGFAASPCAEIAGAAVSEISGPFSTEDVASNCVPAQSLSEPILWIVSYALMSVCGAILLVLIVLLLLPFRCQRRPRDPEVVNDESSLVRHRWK
# Description: In Vitro Enzymatic BACE2 FRET (Fluorescence Resonance Energy Transfer) Assay
# Enzyme Assay Data in the Table 3
# The assay buffer used in this screen is 0.05 M acetate, pH 4.2, 10% DMSO final, 100 uM genapol (which is a nonionic detergent, below its Critical Micelle Concentration). The Beta Secretase2 enzyme (human Bace2 protein with C-terminal V5 and 6-His tag; 0.2 nM) is pre-incubated for one hour with inhibitors, typically in about 1 uL of DMSO according to a serial dilution, are added thereto. This assay is effectively started by the addition of FRET substrate (50 nM) and the combination is incubated for one hour. Final assay concentration of about 0.64 nM. The FRET assay is terminated with by addition of Tris buffer, which raises the pH to neutrality, and the fluorescence is determined. The FRET substrate is a peptide with commercially available fluorophore and quencher, on opposite sides of the BACE cleavage site. Proteolytic cleavage of the FRET substrate releases quenching of fluorescence (excitation 488 nm and […]).
# Abeta 40 = test: In vivo inhibition of beta-secretase: percent Abeta 40 reduction in CSF and brain; design: species or system rat; details: after 4 hrs; for inhibition in vivo at 10 mg/kg: 10 mpk
# Description: In Vivo Inhibition of Beta-Secretase
# Several animal models, including mouse, rat, dog, and monkey, may be used to screen for inhibition of beta-secretase activity in vivo following administration of a test compound sample. Animals used in this invention can be wild type, transgenic, or gene knockout animals. For example, the Tg2576 mouse model, prepared and conducted as described in Hsiao et al., 1996, Science 274, 99-102, and other non-transgenic or gene knockout animals are useful to analyze in vivo inhibition of Amyloid beta peptide (Abeta) production in the presence of inhibitory test compounds. Generally, 2 to 18 month old Tg2576 mice, gene knockout mice or non-transgenic animals are administered test compounds formulated in vehicles, such as cyclodextran, phosphate buffers, hydroxypropyl methylcellulose or other suitable vehicles. One to twenty-four hours following the administration of compound, animals are sacrificed, and brains as well as cerebrospinal fluid (CSF) and plasma are removed for analysis of A-beta levels and drug or test compound concentrations (Dovey et al., 2001, Journal of Neurochemistry, 76, 173-181) Beginning at time 0, animals are administered by oral gavage, or other means of delivery such as intravenous injection, an inhibitory test compound of up to 100 mg/kg in a standard, conventional formulation, such as 2% hydroxypropyl methylcellulose, 1% Tween80. A separate group of animals receive 2% hydroxypropyl methylcellulose, 1% Tween80 alone, containing no test compound, and serve as a vehicle-control group. At the end of the test period, animals are sacrificed and brain tissues, plasma or cerebrospinal fluid are collected. Brains are either homogenized in 10 volumes (w/v) of 0.2% diethylamine (DEA) in 50 mM NaCl (Best et al., 2005, Journal of Pharmacology and Experimental Therapeutics, 313, 902-908), or in 10 volumes of 0.5% TritonX-100 in Tris-buffered saline (pH at about 7.6). Homogenates are centrifuged at 355,000 g, 4° C. for 30 minutes. CSF or brain supernatants are then analyzed for the presence of A-beta peptide by specific sandwich ELISA assays based on ECL (Electrochemiluminescence) technology. For example, rat Abeta40 is measured using biotinylated-4G8 (Signet) as a capture antibody and Fab40 (an in-house antibody specific to the C-terminal of Abeta40) as a detection antibody. For example, 4 hours after administration of 30 mg/kg oral dose of the test compound in 2% hydroxypropyl methylcellulose, 1% Tween80 (pH2.2) to 200 g male Sprague Dawley rats, amyloid beta peptide levels are measured for reduction by X % and Y % in cerebrospinal fluid and brain, respectively, when compared to the levels measured in the vehicle-treated or control […].
# Actual vehicles used: Oral: 2% HPMC, 1% Tween80, pH 2.2
# • IV: 5% EtOH, 45% Propylene glycol in 5% Dextrose
# The compounds of the invention may be shown to reduce the formation and/or deposition of amyloid beta peptide in the cerebrospinal fluid (CSF) as well as in the brain of a mouse or rat at either 3 mpk, 10 mpk or 30 mpk (mpk=mg compound per kg weight of the animal) dosing concentrations after 4 hrs.
# BACE1 = BACE1 (Homo sapiens, UniProt P56817); test: In vitro enzymatic BACE FRET assay; format: biochemical; details: average IC50; read-out: BACE1 Enzyme assay IC50
# In short: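 BACE (0.2 nM) pre-incubated 1 h with serially diluted inhibitor in 0.05 M acetate pH 4.2, 10% DMSO, 100 uM genapol; 50 nM FRET peptide substrate added, 1 h incubation. Stopped with Tris to neutral pH; fluorescence read (ex 488, […]).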
# [1] = Abeta 40, rat CSF, read-out: % reduction of rat CSF levels at 10 pmk
# [2] = Abeta 40, rat brain, read-out: % reduction of rat brain levels at 10 mpk
# Sequence of BACE1 (P56817 46-501, species assumed): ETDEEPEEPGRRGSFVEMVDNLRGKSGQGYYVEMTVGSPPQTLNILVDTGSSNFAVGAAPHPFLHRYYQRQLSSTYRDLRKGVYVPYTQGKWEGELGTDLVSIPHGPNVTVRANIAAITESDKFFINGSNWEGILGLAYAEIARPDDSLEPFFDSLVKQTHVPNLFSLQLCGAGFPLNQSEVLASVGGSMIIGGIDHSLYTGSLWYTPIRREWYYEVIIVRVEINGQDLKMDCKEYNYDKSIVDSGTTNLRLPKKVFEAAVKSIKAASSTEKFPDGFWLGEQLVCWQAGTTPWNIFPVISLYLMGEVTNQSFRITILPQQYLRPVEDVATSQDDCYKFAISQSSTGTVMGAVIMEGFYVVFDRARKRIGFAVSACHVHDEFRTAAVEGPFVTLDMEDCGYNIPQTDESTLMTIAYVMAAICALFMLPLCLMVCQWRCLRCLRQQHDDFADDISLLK
IC50 (human Bace2 protein) [nM],IC50 (BACE1) [nM],Structure (SMILES),inhibition in vivo at 10 mg/kg (Abeta 40; [1]) [%],inhibition in vivo at 10 mg/kg (Abeta 40; [2]) [%],"% reduction of rat CSF levels (3 mpk) (Abeta 40; Abeta 40, rat CSF, 3 mpk)","% reduction of rat brain levels (3 mpk) (Abeta 40; Abeta 40, rat brain, 3 mpk)"
22,8,"C[C@]1(c2cc(Nc3ncnc4cc(C#N)cnc34)ccc2F)N=C(N)[C@@]2(CF)CC[C@@H]1S2(=O)=O [Example 40, 4-((3-((1S,2R,5R)-4-amino-5-(fluoromethyl)-2-methyl-8,8-dioxido-8-thia-3-azabicyclo[3.2.1]oct-3-en-2-yl)-4-fluorophenyl)amino)pyrido[3,2-d]pyrimidine-7-carbonitrile]",59,24,–,–
18.5,18.8,"COc1cnc2c(Nc3ccc(F)c([C@@]4(C)N=C(N)[C@@]5(CF)CC[C@@H]4S5(=O)=O)c3)nccc2c1 [Example 56, N-(3-((1S,2R,5R)-4-amino-5-(fluoromethyl)-2-methyl-8,8-dioxido-8-thia-3-azabicyclo[3.2.1]oct-3-en-2-yl)-4-fluorophenyl)-3-methoxy-1,7-naphthyridin-8-amine]",69,–,–,–
1,3,"C[C@]1(c2cc(NC(=O)c3ccc(Cl)cn3)ccc2F)N=C(N)[C@@]2(CF)CC[C@@H]1S2(=O)=O [Example 77, N-(3-((1S,2R,5R)-4-amino-5-(fluoromethyl)-2-methyl-8,8-dioxido-8-thia-3-azabicyclo[3.2.1]oct-3-en-2-yl)-4-fluorophenyl)-5-chloro-2-pyridinecarboxamide]",77,67,–,–
5,3,"COc1cnc2c(Nc3ccc(F)c([C@@]4(C)N=C(N)[C@@]5(C)CC[C@@H]4S5(=O)=O)c3)ncc(F)c2c1 [Example 78, N-(3-((1S,2R,5R)-4-amino-2,5-dimethyl-8,8-dioxido-8-thia-3-azabicyclo[3.2.1]oct-3-en-2-yl)-4-fluorophenyl)-5-fluoro-3-methoxy-1,7-naphthyridin-8-amine]",52,46,–,–

# Second part, the molecule before the results:
Structure (SMILES),IC50 (human Bace2 protein) [nM],IC50 (BACE1) [nM],inhibition in vivo at 10 mg/kg (Abeta 40; [1]) [%],inhibition in vivo at 10 mg/kg (Abeta 40; [2]) [%],"% reduction of rat CSF levels (3 mpk) (Abeta 40; Abeta 40, rat CSF, 3 mpk)","% reduction of rat brain levels (3 mpk) (Abeta 40; Abeta 40, rat brain, 3 mpk)"
"COc1cnc2c(Nc3ccc(F)c([C@@]4(C)N=C(N)[C@@]5(CF)CC[C@@H]4S5(=O)=O)c3)nccc2n1 [Example 41, N-(3-((1S,2R,5R)-4-amino-5-(fluoromethyl)-2-methyl-8,8-dioxido-8-thia-3-azabicyclo[3.2.1]oct-3-en-2-yl)-4-fluorophenyl)-2-methoxypyrido[3,4-b]pyrazin-5-amine]",10,9,76,62,–,–
"COc1cnc(C(=O)Nc2ccc(F)c([C@@]3(C)N=C(N)[C@@]4(CF)CC[C@@H]3S4(=O)=O)c2)c(C)c1 [Example 42, N-(3-((1S,2R,5R)-4-amino-5-(fluoromethyl)-2-methyl-8,8-dioxido-8-thia-3-azabicyclo[3.2.1]oct-3-en-2-yl)-4-fluorophenyl)-5-methoxy-3-methyl-2-pyridinecarboxamide]",3,13,–,–,21 (3 mpk) %,0 (3 mpk) %
"C#CCOc1ccc(C(=O)Nc2ccc(F)c([C@@]3(C)N=C(N)[C@@]4(CF)CC[C@@H]3S4(=O)=O)c2)nc1 [Example 52, N-(3-((1S,2R,5R)-4-amino-5-(fluoromethyl)-2-methyl-8,8-dioxido-8-thia-3-azabicyclo[3.2.1]oct-3-en-2-yl)-4-fluorophenyl)-5-(2-propyn-1-yloxy)-2-pyridinecarboxamide]",18,1,67,62,–,–
"C#CCOc1cnc(C(=O)Nc2ccc(F)c([C@@]3(C)N=C(N)[C@@]4(CF)CC[C@@H]3S4(=O)=O)c2)c(C)n1 [Example 59, N-(3-((1S,2R,5R)-4-amino-5-(fluoromethyl)-2-methyl-8,8-dioxido-8-thia-3-azabicyclo[3.2.1]oct-3-en-2-yl)-4-fluorophenyl)-3-methyl-5-(2-propyn-1-yloxy)-2-pyrazinecarboxamide]",3,1,80,76,–,–
"COc1cnc(C(=O)Nc2ccc(F)c([C@@]3(C)N=C(N)[C@@]4(C)CC[C@@H]3S4(=O)=O)c2)cn1 [Example 61, N-(3-((1S,2R,5R)-4-amino-2,5-dimethyl-8,8-dioxido-8-thia-3-azabicyclo[3.2.1]oct-3-en-2-yl)-4-fluorophenyl)-5-methoxy-2-pyrazinecarboxamide]",7,5,80,79,–,–
"COc1cnc(C(=O)Nc2ccc(F)c([C@@]3(C)N=C(N)[C@@]4(CF)CC[C@@H]3S4(=O)=O)c2)c(C)n1 [Example 76, N-(3-((1S,2R,5R)-4-amino-5-(fluoromethyl)-2-methyl-8,8-dioxido-8-thia-3-azabicyclo[3.2.1]oct-3-en-2-yl)-4-fluorophenyl)-5-methoxy-3-methyl-2-pyrazinecarboxamide]",4,10,76,66,–,–
"COc1cnc2c(Nc3ccc(F)c([C@@]4(C)N=C(N)[C@@]5(C)CC[C@@H]4S5(=O)=O)c3)nccc2n1 [Example 80, N-(3-((1S,2R,5R)-4-amino-2,5-dimethyl-8,8-dioxido-8-thia-3-azabicyclo[3.2.1]oct-3-en-2-yl)-4-fluorophenyl)-2-methoxypyrido[3,4-b]pyrazin-5-amine]",15,8,72,63,–,–
"CC#CCOc1cnc(C(=O)Nc2ccc(F)c([C@@]3(C)N=C(N)[C@@]4(C)CC[C@@H]3S4(=O)=O)c2)cn1 [Example 82, N-(3-((1S,2R,5R)-4-amino-2,5-dimethyl-8,8-dioxido-8-thia-3-azabicyclo[3.2.1]oct-3-en-2-yl)-4-fluorophenyl)-5-(2-butyn-1-yloxy)-2-pyrazinecarboxamide]",3,0.5,71,56,–,–
